Results reported in patent US6248739A, “Quinolinecarboxamides as antiviral agents” (Pharmacia & Upjohn Company, priority 1999, dated 2001).
Like-named read-outs stand apart in the source and are kept apart here.

Key:
HCMV polymerase = target: T1, HCMV polymerase (Human cytomegalovirus, UniProt P08546); experiment: biochemical
T1 construct: made in house; host or cells: recombinant baculovirus-infected SF-9 insect cells
Outline: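 Scintillation proximity assay with baculovirus/SF-9-expressed HCMV polymerase, 90 nM ³H-dTTP and 6 nM biotinylated poly(dA)-oligo(dT) in HEPES pH 7.5/KCl/MgCl2/BSA, ±2 mM CHAPS, 25 or 37 °C, 30 min for HCMV. Modified version: compounds diluted in 100% DMSO, 4.5 mM DTT added. IC50 from linear regression.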

HSV polymerase = HSV polymerase (Human herpesvirus 1, UniProt P04293); experiment: HSV polymerase assay (Table 1); format: biochemical
HSV polymerase, sequence (P04293 whole entry): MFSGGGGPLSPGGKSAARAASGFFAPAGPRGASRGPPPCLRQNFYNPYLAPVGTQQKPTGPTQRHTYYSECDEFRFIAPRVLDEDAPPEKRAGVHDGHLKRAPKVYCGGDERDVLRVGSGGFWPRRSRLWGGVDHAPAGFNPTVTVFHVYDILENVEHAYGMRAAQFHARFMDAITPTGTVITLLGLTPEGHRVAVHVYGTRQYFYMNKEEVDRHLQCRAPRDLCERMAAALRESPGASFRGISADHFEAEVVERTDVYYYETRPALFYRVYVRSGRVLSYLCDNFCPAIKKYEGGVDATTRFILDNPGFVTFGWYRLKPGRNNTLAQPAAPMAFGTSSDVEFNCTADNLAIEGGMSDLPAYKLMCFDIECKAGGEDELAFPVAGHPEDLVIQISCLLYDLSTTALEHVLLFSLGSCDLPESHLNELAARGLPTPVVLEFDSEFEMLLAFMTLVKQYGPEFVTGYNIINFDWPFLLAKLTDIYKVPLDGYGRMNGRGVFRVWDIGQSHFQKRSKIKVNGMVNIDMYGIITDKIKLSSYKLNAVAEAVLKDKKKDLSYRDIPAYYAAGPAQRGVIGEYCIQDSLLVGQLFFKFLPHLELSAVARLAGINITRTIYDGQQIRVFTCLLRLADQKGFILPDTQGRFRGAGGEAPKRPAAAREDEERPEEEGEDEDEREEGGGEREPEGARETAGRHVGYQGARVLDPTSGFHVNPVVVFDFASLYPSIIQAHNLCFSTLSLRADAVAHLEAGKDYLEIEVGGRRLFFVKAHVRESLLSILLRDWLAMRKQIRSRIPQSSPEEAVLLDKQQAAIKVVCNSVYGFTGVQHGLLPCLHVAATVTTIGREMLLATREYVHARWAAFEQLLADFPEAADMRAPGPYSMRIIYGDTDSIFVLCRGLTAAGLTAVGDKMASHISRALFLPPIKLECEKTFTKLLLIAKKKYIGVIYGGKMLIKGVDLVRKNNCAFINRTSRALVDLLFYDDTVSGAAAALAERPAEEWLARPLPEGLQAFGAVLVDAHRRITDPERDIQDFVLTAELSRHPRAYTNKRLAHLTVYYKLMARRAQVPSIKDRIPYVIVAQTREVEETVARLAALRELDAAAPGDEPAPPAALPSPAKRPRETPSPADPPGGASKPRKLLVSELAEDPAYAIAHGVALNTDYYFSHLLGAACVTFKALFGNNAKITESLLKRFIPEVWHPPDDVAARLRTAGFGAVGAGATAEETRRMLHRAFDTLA

VZV polymerase = VZV polymerase (Varicella-zoster virus, UniProt P09252); experiment: VZV polymerase assay (Table 1); format: biochemical
VZV polymerase, sequence (P09252 whole entry): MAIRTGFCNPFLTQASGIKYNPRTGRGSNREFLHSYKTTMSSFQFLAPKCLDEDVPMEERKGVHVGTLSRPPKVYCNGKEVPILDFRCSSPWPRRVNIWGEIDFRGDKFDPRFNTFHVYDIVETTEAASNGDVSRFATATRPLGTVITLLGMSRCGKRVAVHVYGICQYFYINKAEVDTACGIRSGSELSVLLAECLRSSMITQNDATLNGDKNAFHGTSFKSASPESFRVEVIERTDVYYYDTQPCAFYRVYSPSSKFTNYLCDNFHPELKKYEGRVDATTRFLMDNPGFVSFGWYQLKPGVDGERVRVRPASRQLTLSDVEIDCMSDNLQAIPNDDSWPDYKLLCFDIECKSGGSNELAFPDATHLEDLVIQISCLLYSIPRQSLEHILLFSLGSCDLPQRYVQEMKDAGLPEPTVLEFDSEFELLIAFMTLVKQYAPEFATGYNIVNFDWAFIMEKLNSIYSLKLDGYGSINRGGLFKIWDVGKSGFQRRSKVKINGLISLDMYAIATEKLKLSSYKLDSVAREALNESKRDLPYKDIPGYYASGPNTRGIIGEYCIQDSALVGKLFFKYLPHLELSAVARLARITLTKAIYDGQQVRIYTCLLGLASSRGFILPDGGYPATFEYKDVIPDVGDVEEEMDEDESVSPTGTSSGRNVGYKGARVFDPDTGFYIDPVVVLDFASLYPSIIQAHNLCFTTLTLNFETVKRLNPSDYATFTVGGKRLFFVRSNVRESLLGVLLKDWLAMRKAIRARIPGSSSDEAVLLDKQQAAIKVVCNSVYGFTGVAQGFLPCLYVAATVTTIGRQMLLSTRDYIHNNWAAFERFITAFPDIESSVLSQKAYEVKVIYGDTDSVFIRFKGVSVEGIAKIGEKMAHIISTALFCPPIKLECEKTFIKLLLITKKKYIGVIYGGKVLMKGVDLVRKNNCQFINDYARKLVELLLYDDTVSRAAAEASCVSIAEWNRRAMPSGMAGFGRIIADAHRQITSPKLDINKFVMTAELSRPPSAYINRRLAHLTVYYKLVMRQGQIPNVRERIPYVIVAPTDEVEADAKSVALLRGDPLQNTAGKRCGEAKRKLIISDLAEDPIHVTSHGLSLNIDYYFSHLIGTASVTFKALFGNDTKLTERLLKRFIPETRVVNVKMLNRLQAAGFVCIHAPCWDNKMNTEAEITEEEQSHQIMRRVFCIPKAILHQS

[1] = HCMV polymerase, SPA, modified assay: compounds in 100% DMSO, 4.5 mM DTT

T1 sequence (P08546 whole entry): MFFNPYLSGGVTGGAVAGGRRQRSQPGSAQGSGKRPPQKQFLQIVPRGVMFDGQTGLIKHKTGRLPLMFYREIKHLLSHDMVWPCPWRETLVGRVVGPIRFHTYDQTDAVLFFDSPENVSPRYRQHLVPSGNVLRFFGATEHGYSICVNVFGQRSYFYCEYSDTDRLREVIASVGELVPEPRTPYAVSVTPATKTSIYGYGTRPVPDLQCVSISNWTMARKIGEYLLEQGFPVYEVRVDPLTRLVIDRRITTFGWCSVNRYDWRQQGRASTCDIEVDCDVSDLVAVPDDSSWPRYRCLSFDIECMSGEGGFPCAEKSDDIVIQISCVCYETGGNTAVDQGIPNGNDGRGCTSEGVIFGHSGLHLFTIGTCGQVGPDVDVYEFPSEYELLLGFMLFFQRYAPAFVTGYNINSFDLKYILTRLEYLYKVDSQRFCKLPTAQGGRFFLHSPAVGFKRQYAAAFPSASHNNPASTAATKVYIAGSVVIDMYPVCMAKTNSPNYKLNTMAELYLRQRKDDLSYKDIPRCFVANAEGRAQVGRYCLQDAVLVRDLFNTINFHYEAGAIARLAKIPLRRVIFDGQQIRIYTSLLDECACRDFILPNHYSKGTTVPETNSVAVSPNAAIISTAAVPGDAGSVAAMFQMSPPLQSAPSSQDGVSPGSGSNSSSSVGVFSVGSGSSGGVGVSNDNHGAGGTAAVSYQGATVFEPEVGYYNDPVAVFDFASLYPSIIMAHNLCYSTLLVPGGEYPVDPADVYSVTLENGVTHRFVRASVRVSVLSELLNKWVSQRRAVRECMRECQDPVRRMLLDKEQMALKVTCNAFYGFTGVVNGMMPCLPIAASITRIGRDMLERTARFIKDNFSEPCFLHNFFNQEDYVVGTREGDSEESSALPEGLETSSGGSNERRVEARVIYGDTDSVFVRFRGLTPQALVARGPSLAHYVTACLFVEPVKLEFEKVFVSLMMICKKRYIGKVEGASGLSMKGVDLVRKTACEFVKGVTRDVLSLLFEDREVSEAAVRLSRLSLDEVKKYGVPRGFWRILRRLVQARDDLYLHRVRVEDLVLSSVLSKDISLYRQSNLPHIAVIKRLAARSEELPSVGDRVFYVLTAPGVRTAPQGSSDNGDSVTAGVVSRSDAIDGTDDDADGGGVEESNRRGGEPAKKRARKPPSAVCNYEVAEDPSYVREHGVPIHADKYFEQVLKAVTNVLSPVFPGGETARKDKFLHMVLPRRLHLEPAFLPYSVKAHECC

IC50 (HSV polymerase) [nM] | IC50 (VZV polymerase) [nM] | IC50 (HCMV polymerase; [1]) [nM] | Structure (SMILES) | IC50 (HCMV polymerase) [nM]
4100 | 2100 | 1300 | COc1cc(C(O)CN(C)Cc2ccc3c(c2)c(=O)c(C(=O)NCc2ccc(Cl)cc2)cn3C)ccc1O (stereo not drawn) [Example 77, N-(4-Chlorobenzyl)-6-([(2-hydroxy-2-[4-hydroxy-3-methoxyphenyl]ethyl)[methyl]amino]methyl)-1-methyl-4-oxo-1,4-dihydro-3-quinolinecarboxamide] | 
1000 | 1200 | 600 | Cn1cc(C(=O)NCc2ccc(Cl)cc2)c(=O)c2cc(CCCO)cc(OCCO)c21 [Example 4] | 
1600 | 1500 | 1600 | O=C(NCc1ccc(Cl)cc1)c1cn(C2CC2)c2ccc(C#CCO)cc2c1=O [Example 25, N-(4-Chlorobenzyl)-1-cyclopropyl-6-(3-hydroxy-1-propynyl)-4-oxo-1,4-dihydro-3-quinolinecarboxamide] | 
4400 | 4000 | 3300 | Cn1cc(C(=O)NCc2ccc(Cl)cc2)c(=O)c2cc(CN3CC(O)C3)ccc21 [Example 75, N-(4-Chlorobenzyl)-6-[(3-hydroxy-1-azetidinyl)methyl]-1-methyl-4-oxo-1,4-dihydro-3-quinolinecarboxamide] | 
< 310 | < 310 | 180 | O=C(NCc1ccc(Cl)cc1)c1cn(CSc2ccccc2)c2ccc(CN3CCOCC3)cc2c1=O [Example 76, N-(4-Chlorobenzyl)-6-(morpholinylmethyl)-4-oxo-1-[(phenylsulfanyl)methyl]-1,4-dihydro-3-quinolinecarboxamide] | 
2800 | 1600 | 890 | CN(Cc1ccc2c(c1)c(=O)c(C(=O)NCc1ccc(Cl)cc1)cn2C)CC(O)c1ccc(O)cc1 (stereo not drawn) [Example 74, N-(4-Chlorobenzyl)-6-([(2-hydroxy-2-[4-hydroxyphenyl]-ethyl) [methyl]amino]methyl)-1-methyl-4-oxo-1,4-dihydro-3-quinolinecarboxamide] | 
2400 | 1400 | 2300 | O=C(NCc1ccc(Cl)cc1)c1cn(CCOCCO)c2ccc(C#CCO)cc2c1=O [Example 55, N-(4-Chlorobenzyl)-1-[2-(2-hydroxyethoxy)ethyl]-6-(3-hydroxy-1-propynyl)-4-oxo-1,4-dihydro-3-quinolinecarboxamide] | 
3000 | 1900 | 2000 | CCN(CC)CCn1cc(C(=O)NCc2ccc(Cl)cc2)c(=O)c2cc(C#CCO)ccc21 [Example 12, N-(4-Chlorobenzyl)-1-[2-(diethylamino)ethyl]-6-(3-hydroxy-1-propynyl)-4-oxo-1,4-dihydro-3-quinolinecarboxamide] | 

Structure (SMILES) | IC50 (HSV polymerase) [nM] | IC50 (VZV polymerase) [nM] | IC50 (HCMV polymerase; [1]) [nM] | IC50 (HCMV polymerase) [nM]
O=C(NCc1ccc(Cl)cc1)c1cn(CCN2CCCCC2)c2ccc(C#CCO)cc2c1=O [Example 14, N-(4-Chlorobenzyl)-6-(3-hydroxy-1-propynyl)-1-[2-(1-piperidinyl)ethyl]-4-oxo-1,4-dihydro-3-quinolinecarboxamide] | 1200 | 1100 |  | 1300
O=C(NCc1ccc(Cl)cc1)c1cn(CCN2CCOCC2)c2ccc(C=CCO)cc2c1=O [Example 7, N-(4-Chlorobenzyl)-6-(3-hydroxy-1-propenyl)-1-[2-(4-morpholinyl)ethyl]-4-oxo-1,4-dihydro 3-quinolinecarboxamide] | 1100 | 770 |  | 1000
